Experimental data reported in US9845326B2, “Substituted 3,4-dihydropyrrolo[1,2-A]pyrazines as beta-secretase (BACE) inhibitors” (priority 2011, dated 2017).

Tests used:
BACE1 = BACE1 (Homo sapiens, UniProt P56817); experiment: Biochemical FRET based assay; conditions: Biochemical FRET based assay pIC50, recombinant BACE1 1 μg/ml, 120 min, room temperature, pH 5.0
Source text: This assay is a Fluorescence Resonance Energy Transfer Assay (FRET) based assay. The substrate for this assay is an APP derived 13 amino acids peptide that contains the ‘Swedish’ Lys-Met/Asn-Leu mutation of the amyloid precursor protein (APP) β-secretase cleavage site. This substrate also contains two fluorophores: (7-methoxy-coumarin-4-yl) acetic acid (Mca) is a fluorescent donor with excitation wavelength at 320 nm and emission at 405 nm and 2,4-Dinitrophenyl (Dnp) is a proprietary quencher acceptor. […] Upon cleavage by BACE1, the fluorophore Mca is separated from the quenching group Dnp, restoring the full fluorescence yield of the donor. The increase in fluorescence is linearly related to the rate of proteolysis (Koike H et al. J. Biochem. 1999, 126, 235-242).
Briefly in a 384-well format recombinant BACE1 protein in a final concentration of 1 μg/ml is incubated for 120 min at room temperature with 10 μm substrate in incubation buffer (40 mM Citrate buffer pH 5.0, 0.04% PEG, 4% DMSO) in the absence or presence of compound. Next the amount of proteolysis is directly measured by fluorescence measurement at T=0 and T=120 (excitation at 320 nm and emission at 405 nm). Results are expressed in RFU, as difference between T120 and T0
From this an IC50 value (inhibitory concentration causing 50% inhibition of activity) can be obtained.

Aβ42 [1] = experiment: Cellular αlisa assay in SKNBE2 cells, Aβ42; type: cell-based, human; conditions: Homo sapiens, SKNBE2, 18 h, SKNBE2 cells expressing hAPP695, 18 hours incubation; read-out: Cellular αlisa assay in SKNBE2 cells Aβ42 pIC50 (converted)
Method: (§1) In two αlisa assays the levels of Aβtotal and Aβ42 produced and secreted into the medium of human neuroblastoma SKNBE2 cells are quantified. The assay is based on the human neuroblastoma SKNBE2 expressing the wild type Amyloid Precursor Protein (hAPP695). The compounds are diluted and added to these cells, incubated for 18 hours and then measurements of Aβ42 and Aβtotal are taken. Aβtotal and Aβ42 are measured by sandwich αlisa. αlisa is a sandwich assay using biotinylated antibody AbN/25 attached to streptavidin coated beads and antibody Ab4G8 or cAb42/26 conjugated acceptor beads for the detection of Aβtotal and Aβ42 respectively. In the presence of Aβtotal or Aβ42, the beads come into close proximity. The excitation of the Donor beads provokes the release of singlet oxygen molecules that triggers a cascade of energy transfer in the Acceptor beads, resulting in light emission. Light emission is measured after 1 hour incubation (excitation at […] and emission at 615 nm).
(§2) From this an […] value (inhibitory concentration causing 50% inhibition of activity) can be obtained.

Aβtotal [2] = experiment: Cellular αlisa assay in SKNBE2 cells, Aβtotal; type: cell-based, human; conditions: Homo sapiens, SKNBE2, 18 h, SKNBE2 cells expressing hAPP695, 18 hours incubation; read-out: Cellular αlisa assay in SKNBE2 cells Aβtotal pIC50 (converted)
Method: as §1, §2

Aβ42 [3] = experiment: In vivo efficacy: brain Aβ42 lowering (ELISA); design: species or system mouse; conditions: 30 mg/kg, p.o., 4 h. after administration, soluble fraction
Source text: (§3) To determine whether acute administration of an Aβ42 peptide lowering agent would reduce Aβ peptide levels in vivo, non-transgenic rodents, e.g. mice or rats were used. Animals treated with the Aβ peptide lowering agent were examined and compared to those untreated or treated with vehicle and brain levels of soluble Aβ42 and total Aβ were quantitated by standard techniques, for example, using ELISA. Treatment periods varied from hours (h) to days and were adjusted based on the results of the Aβ42 lowering once a time course of onset of effect could be established.
(§4) A typical protocol for measuring Aβ42 lowering in vivo is shown but it is only one of many variations that could be used to optimize the levels of detectable Aβ. […] After a certain time, usually 2 or 4 h (as indicated in Table 7), the animals were sacrificed and Aβ42 levels were analysed.
(§5) Blood was collected by decapitation and exsanguinations in EDTA-treated collection tubes. […] The left hemisphere was stored at −18° C. for quantitative analysis of test compound levels. […]
(§6) Mouse brains from non-transgenic animals were resuspended in 8 volumes of 0.4% DEA (diethylamine)/50 mM NaCl containing protease inhibitors (Roche-11873580001 or 04693159001) per gram of tissue, e.g. for 0.158 g brain, add 1.264 ml of 0.4% DEA. […] Nine parts of supernatant were neutralized with 1 part 0.5 M Tris-HCl pH 6.8 and used to quantify Aβtotal and Aβ42. […]

Aβtotal [4] = experiment: In vivo efficacy: brain Aβtotal lowering (ELISA); design: species or system mouse; conditions: 30 mg/kg, p.o., 4 h. after administration, soluble fraction
Source text: as §3, §4, §5, §6

BACE1, sequence (P56817 46-501): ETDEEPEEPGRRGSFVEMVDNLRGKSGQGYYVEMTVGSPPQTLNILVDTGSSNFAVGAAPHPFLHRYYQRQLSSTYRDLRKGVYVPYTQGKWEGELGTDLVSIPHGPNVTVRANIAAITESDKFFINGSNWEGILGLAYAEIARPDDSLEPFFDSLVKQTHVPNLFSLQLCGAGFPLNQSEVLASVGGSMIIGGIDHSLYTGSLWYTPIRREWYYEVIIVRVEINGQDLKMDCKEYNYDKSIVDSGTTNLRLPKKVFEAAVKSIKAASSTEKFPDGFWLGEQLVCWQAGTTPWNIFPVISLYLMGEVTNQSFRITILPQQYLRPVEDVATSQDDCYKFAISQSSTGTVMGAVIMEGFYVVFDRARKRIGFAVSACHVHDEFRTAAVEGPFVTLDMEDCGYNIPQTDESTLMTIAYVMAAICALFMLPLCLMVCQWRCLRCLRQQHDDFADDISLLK

C[C@@]1(c2cc(NC(=O)c3ccc(F)cn3)ccc2F)Cn2cc(F)cc2C(N)=N1 [Compound 7, (R)-5-Fluoro-pyridine-2-carboxylic acid [3-(1-amino-7-fluoro-3-methyl-3,4-dihydro-pyrrolo[1,2-a]pyrazin-3-yl)-4-fluoro-phenyl]-amide]
IC50 (BACE1): 41.7 nM | IC50 (Aβ42 [1]): 6.61 nM | IC50 (Aβtotal [2]): 5.62 nM | Aβ42 (%Ctrl)_Mean (Aβ42 [3]): 73 %Ctrl | Aβtotal (%Ctrl)_Mean (Aβtotal [4]): 99 %Ctrl
